“And” between values parts separate entries of the source, which are not always exact repeats. Identical values can stand only once. Like-named read-outs stand apart in the source and are kept apart here.
Assays:
[1] = tested on: blood sugar; test: Blood sugar-lowering activity (oral test compound, subcutaneous glucose load); assay type: in vivo, male ddY mice; conditions: for minimal effective dose: Mus musculus, 1 h, read-out: Minimum effective dose (blood sugar-lowering activity)
Description: For example, when the blood sugar-lowering activity was estimated by orally administering a test compound to mice immediately before subcutaneous injection of glucose, said activity of the compound of the present invention was about 100 to about 1000 times stronger than that of Phenformin (Chemical name: 1-phenethylbiguanide).
An aqueous solution or suspension (10 ml/kg) of a test compound was administered orally through a stomach tube to a group of male ddY mice (each group consisting of five mice) which fasted for 20 hours. A physiological saline solution (10 ml/kg) containing 10 w/v % glucose was injected subcutaneously to the mice immediately after the oral administration of the test compound. One hour after the injection of glucose, 0.02 ml of blood was collected from the tail vein of the mice. Then, the amount of glucose in the blood sample was estimated by the glucose oxidase method (H. U. Bergmeyer & E. Bernt, "Methods of Enzymatic Analysis", H. U. Bergmeyer (Ed.), Acadamic Press, New York & London, 1963, page 123). The blood sugar-lowering activity of the test compound was calculated by the following formula: [formula] Further, on the basis of the potency ratio calculated above, the activity of the test compound was expressed as follows: […]

[2] = tested on: blood platelets; test: Preventive effect upon the aggregation of blood platelets (collagen-induced, platelet-rich plasma); assay type: cell-based, male Sprague-Dawley rats; conditions: for inhibition at 100 µg/mL: Rattus norvegicus, Platelet
[3] = tested on: blood sugar; conditions: U.S. Pat. Nos. 4,032,575 and 4,131,686, Japanese Patent Publication No. 71428/1977; cited from earlier work
[4] = tested on: mice; test: Acute toxicity / maximum tolerance dose (intraperitoneal injection); assay type: in vivo; conditions: 48 hours after intraperitoneal injection
Description: For example, the maximum tolerance dose (M.T.D.) of α-[(α,α-dimethyl-3,4-dimethoxyphenethylamino)methyl]-2-benzyloxybenzylalcohol oxalate and α-[(α,α-dimethyl-3,4-dimethoxyphenethylamino)methyl]-2-chlorobenzylalcohol hydrochloride which was estimated 48 hours after intraperitoneal injection thereof to a group of 4 mice was not less than 100 mg/kg.

[5] = 100 μg/ml, graded against acetylsalicylic acid 100 μg/ml
[6] = test compound 100 μg/ml, collagen, rat PRP
[7] = read-out: Inhibition (%) against platelet aggregation, A* (test compound group)

Molecule	Minimum effective dose (blood sugar-lowering activity) ([1]; oral, mice) [mg/kg]	Platelet aggregation inhibiting activity [2, 5]	Inhibition (%) against platelet aggregation, A* (test compound group) [2, 6] [%]	further results
α-[(α,α-dimethyl-4-methoxyphenethylamino)methyl]-2-hydroxybenzylalcohol 1/2 oxalate [Test compound 1]	0.3	+ (not less than 10% inhibition of platelet aggregation but said percentage inhibition was not higher than that of acetylsalicylic acid (100 μg/ml))	22	
CCCCOc1ccccc1C(O)CNC(C)(C)Cc1ccc(OC)cc1 (centres unmarked) [compound 4]				minimal effective dose ([1]; oral, mice): 0.3 mg/kg
α-[(α,α-dimethyl-3,4-methylenedioxyphenethylamino)methyl]-2-benzyloxybenzylalcohol 1/2 oxalate [Test compound 16]	0.3	+ (not less than 10% inhibition of platelet aggregation but said percentage inhibition was not higher than that of acetylsalicylic acid (100 μg/ml))	29	
COc1ccc(CC(C)(C)NCC(O)c2ccccc2OC)cc1 (centres unmarked) [compound 3]		++		minimal effective dose ([1]; po): 0.1 mg/kg; inhibition at 100 µg/mL [2, 7]: 80%
COc1ccc(CCNCC(O)c2ccccc2OC)cc1OC (stereo not drawn) [α-[(3,4-dimethoxyphenethylamino)methyl]-2-methoxybenzylalcohol, reference compound]				preventive effect upon the aggregation of blood platelets (in words) [2]: no substantial preventive effect; blood sugar-lowering activity (in words) [3]: show a blood sugar-lowering activity
α-[(α,α-dimethyl-2,3,4-trimethoxyphenethylamino)methyl]- 2-methoxybenzylalcohol hydrochloride [Test compound 13]	1.0	+ (not less than 10% inhibition of platelet aggregation but said percentage inhibition was not higher than that of acetylsalicylic acid (100 μg/ml))	37	
α-[(α,α-dimethyl-2,3,4-trimethoxyphenethylamino)methyl]- 2-hydroxybenzylalcohol 1/2 oxalate [Test compound 11]	1.0	++	59	
COc1ccc(CC(C)(C)NCC(O)c2ccccc2Cl)cc1.Cl (stereo not drawn) [Test compound 5, α-[(α,α-dimethyl-4-methoxyphenethylamino)-methyl]-2-chlorobenzylalcohol hydrochloride]				minimal effective dose ([1]; po): 0.1 mg/kg
α-[(α,α-dimethyl-3,4-methylenedioxyphenethylamino)methyl]-2-methoxybenzylalcohol 1/2 succinate [Test compound 17]	2.0			
α-[(α,α-dimethyl-3,4-dimethoxyphenethylamino)methyl]-2-chlorobenzylalcohol hydrochloride [Test compound 10]	1.0	++	84	maximum tolerance dose (M.T.D.) [4]: not less than 100 mg/kg
α-[(α,α-dimethyl-4-methoxyphenethylamino)methyl]-2-benzyloxybenzylalcohol hydrochloride [Example 7]	0.3	++	90	
α-[(α,α-dimethyl-3,4-dimethoxyphenethylamino)methyl]-2-methoxybenzylalcohol hydrochloride [Test compound 8]	1.0	++	57	
COc1ccc(CC(C)(C)NCC(O)c2ccccc2OCc2ccccc2)cc1 (centres unmarked) [compound 2]				minimal effective dose ([1]; oral, mice): 1 mg/kg; inhibition at 100 µg/mL ([2]; 100 μg/ml, graded against acetylsalicylic acid 100 μg/ml, read-out: Platelet aggregation inhibiting activity): > 10%; inhibition at 100 µg/mL ([2]; test compound 100 μg/ml, collagen, rat PRP, read-out: Inhibition (%) against platelet aggregation, A* (test compound group)): 27%
α-[(α,α-dimethyl-2,3,4-trimethoxyphenethylamino)methyl]- 2-benzyloxybenzylalcohol 1/2 oxalate [Test compound 12]	1.0	++	85	
COc1ccc(CCNCC(O)c2ccccc2OCc2ccccc2)cc1OC (stereo not drawn) [α-[(3,4-dimethoxyphenethylamino)methyl]-2-benzyloxybenzylalcohol]				blood sugar-lowering activity (in words) [3]: show a blood sugar-lowering activity
α-[(α,α-dimethyl-3,4-methylenedioxyphenethylamino)methyl]-2-hydroxybenzylalcohol 1/2 oxalate [Test compound 15]	5.0			
CC(=O)Oc1ccccc1C(=O)O [acetylsalicylic acid, reference compound]				Inhibition (%) against platelet aggregation, B** (acetylsalicylic acid group) ([2]; acetylsalicylic acid 100 μg/ml, comparison group for the test compound of the same line): 31% and 58% and 50% and 56% and 54%
α-[(α,α-dimethyl-4-methoxyphenethylamino)methyl]-2-methoxybenzylalcohol 1/2 oxalate [Test compound 3]	1.0	+ (not less than 10% inhibition of platelet aggregation but said percentage inhibition was not higher than that of acetylsalicylic acid (100 μg/ml))	57	
α-[(α,α-dimethyl-3,4-dimethoxyphenethylamino)methyl]-2-benzyloxybenzylalcohol oxalate [Test compound 7]	0.3	+ (not less than 10% inhibition of platelet aggregation but said percentage inhibition was not higher than that of acetylsalicylic acid (100 μg/ml))	17	maximum tolerance dose (M.T.D.) [4]: not less than 100 mg/kg
α-[(α,α-dimethyl-3,4-dimethoxyphenethylamino)methyl]-2-hydroxybenzylalcohol 1/2 oxalate [Test compound 6]	1.0	++		
α-[(α,α-dimethyl-2,3,4-trimethoxyphenethylamino)methyl]- 2-chlorobenzylalcohol hydrochloride [Test compound 14]	0.1	++	93	
α-[(α,α-dimethyl-4-methoxyphenethylamino)methyl]-2-n-butoxybenzylalcohol hydrochloride [Test compound 4]	0.1	+ (not less than 10% inhibition of platelet aggregation but said percentage inhibition was not higher than that of acetylsalicylic acid (100 μg/ml))	31	
COc1ccc(CC(C)(C)NCC(O)c2ccccc2O)cc1 (centres unmarked) [compound 1]		++		minimal effective dose ([1]; po): 0.3 mg/kg; inhibition at 100 µg/mL [2, 7]: 90%
α-[(α,α-dimethyl-3,4-dimethoxyphenethylamino)methyl]-2-n-butoxybenzylalcohol hydrochloride [Test compound 9]	1.0	+ (not less than 10% inhibition of platelet aggregation but said percentage inhibition was not higher than that of acetylsalicylic acid (100 μg/ml))	33	
COc1ccc(CCNCC(O)c2ccccc2O)cc1OC (stereo not drawn) [α-[(3,4-dimethoxyphenethylamino)methyl]-2-hydroxybenzylalcohol, reference compound]				preventive effect upon the aggregation of blood platelets (in words) [2]: no substantial preventive effect; blood sugar-lowering activity (in words) [3]: show a blood sugar-lowering activity
